Test results published in patent publication US8754079B2, “Cycloalkyl containing thienopyrimidines for pharmaceutical compositions” (Boehringer Ingelheim International GmbH, priority 2010, dated 2014).

Target: T1, MNK2 (Homo sapiens, UniProt Q9HBH9)
T1 construct: the open reading frames of human Mnk1 and Mnk2a were amplified from cDNA; made in house; host or cells: E. coli BL21
Assay: Mnk2a in vitro kinase assay (indirect fluorescence polarization)
Type: biochemical
Conditions: pre-activated GST-Mnk2a 2.5 nM, 20 μM ATP, 30 μM substrate peptide
In short: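 Human GST-Mnk2a was expressed in E. coli and activated in vitro with 150 nM pre-activated ERK2 and 50 μM ATP in HEPES pH 7.4/MgCl2 buffer (45 min, 30 °C). Activity on an eIF4E Ser209-derived 12mer peptide was read by competitive fluorescence polarization with a phospho-specific antibody.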

T1 sequence (Q9HBH9 whole entry): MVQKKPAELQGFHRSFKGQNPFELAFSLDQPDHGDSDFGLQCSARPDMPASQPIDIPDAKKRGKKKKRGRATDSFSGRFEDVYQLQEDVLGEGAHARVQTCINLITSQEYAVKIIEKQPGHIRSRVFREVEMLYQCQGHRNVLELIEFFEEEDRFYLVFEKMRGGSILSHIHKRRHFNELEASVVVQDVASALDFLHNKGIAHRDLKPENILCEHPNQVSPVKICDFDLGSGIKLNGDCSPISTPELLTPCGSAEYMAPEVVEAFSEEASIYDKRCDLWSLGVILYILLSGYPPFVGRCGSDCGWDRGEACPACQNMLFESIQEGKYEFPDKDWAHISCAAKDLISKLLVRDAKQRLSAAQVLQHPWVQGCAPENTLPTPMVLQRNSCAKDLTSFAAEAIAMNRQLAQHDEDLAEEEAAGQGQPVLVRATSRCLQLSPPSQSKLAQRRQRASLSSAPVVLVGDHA

Structure (SMILES)	IC50 [nM]
Cc1c(C(N)=O)sc2ncnc(Nc3ccc(F)cc3O[C@H]3CC[C@H](NC4CCN(C)CC4)CC3)c12 [Example 16, 4-(4-Fluoro-2-(trans-4-(1-methylpiperidin-4-ylamino)cyclohexyloxy)phenylamino)-5-methylthieno[2,3-d]pyrimidine-6-carboxamide]	13
Cc1c(C(N)=O)sc2ncnc(Nc3ccc(F)cc3O[C@H]3CC[C@H](N4CCOCC4)CC3)c12 [Example 26, 4-(4-Fluoro-2-(trans-4-morpholinocyclohexyloxy)phenylamino)-5-methylthieno[2,3-d]pyrimidine-6-carboxamide]	82
COC(=O)c1sc2ncnc(Nc3ccc(F)cc3O[C@@H]3C[C@H](O)C[C@H](O)C3)c2c1C [Example 28.1]	158
CO[C@@H]1C[C@H](OC)C[C@H](Oc2cc(F)ccc2Nc2ncnc3sc(C(N)=O)c(C)c23)C1 [Example 29]	90
COC(=O)c1sc2ncnc(Nc3ccc(F)cc3OC3CCC(C)(C)CC3)c2c1C [Example 31.1]	37
Cc1c(C(=O)NCCCN(C)C)sc2ncnc(Nc3ccc(F)cc3OC3CCC(C)(C)CC3)c12 [Example 32, 4-[2-(4,4-Dimethyl-cyclohexyloxy)-4-fluoro-phenylamino]-5-methyl-thieno[2,3-d]pyrimidine-6-carboxylic acid (3-dimethylamino-propyl)-amide]	36

Second part, the compound after the results:

IC50 [nM]	Structure (SMILES)
31	Cc1c(C(N)=O)sc2ncnc(Nc3ccc(F)cc3OC3CCC4(CC3)OCCO4)c12 [Example 19, 4-(2-(1,4-Dioxaspiro[4.5]decan-8-yloxy)-4-fluorophenylamino)-5-methylthieno[2,3-d]pyrimidine-6-carboxamide]
360	COC(=O)c1sc2ncnc(Nc3ccc(F)cc3OC3CCC(=O)CC3)c2c1C [Example 20, Methyl 4-(4-fluoro-2-(4-oxocyclohexyloxy)phenylamino)-5-methylthieno[2,3-d]pyrimidine-6-carboxylate]
31	Cc1c(C(N)=O)sc2ncnc(Nc3ccc(F)cc3OC3CCC(=O)CC3)c12 [Example 21, 4-(4-Fluoro-2-(4-oxocyclohexyloxy)phenylamino)-5-methylthieno[2,3-d]pyrimidine-6-carboxamide]
65	COCCN(C)[C@H]1CC[C@H](Oc2cc(F)ccc2Nc2ncnc3sc(C(N)=O)c(C)c23)CC1 [Example 22, 4-(4-Fluoro-2-(trans-4-((2-methoxyethyl)(methyl)amino)cyclohexyloxy)phenylamino)-5-methylthieno[2,3-d]pyrimidine-6-carboxamide]
920	COCCN(C)[C@H]1CC[C@@H](Oc2cc(F)ccc2Nc2ncnc3sc(C(N)=O)c(C)c23)CC1 [Example 23, 4-(4-Fluoro-2-(cis-4-((2-methoxyethyl)(methyl)amino)cyclohexyloxy)phenylamino)-5-methylthieno[2,3-d]pyrimidine-6-carboxamide]
14	COCCN[C@H]1CC[C@H](Oc2cc(F)ccc2Nc2ncnc3sc(C(N)=O)c(C)c23)CC1 [Example 24, 4-(4-Fluoro-2-(trans-4-(2-methoxyethylamino)cyclohexyloxy)phenylamino)-5-methylthieno[2,3-d]pyrimidine-6-amide]
300	COCCN[C@H]1CC[C@@H](Oc2cc(F)ccc2Nc2ncnc3sc(C(N)=O)c(C)c23)CC1 [Example 25, 4-(4-Fluoro-2-(cis-4-(2-methoxyethylamino)cyclohexyloxy)phenylamino)-5-methylthieno[2,3-d]pyrimidine-6-carboxamide]
9700	Cc1c(C(N)=O)sc2ncnc(Nc3ccc(F)cc3O[C@H]3CC[C@@H](N4CCOCC4)CC3)c12 [Example 27, 4-(4-Fluoro-2-(cis-4-morpholinocyclohexyloxy)phenylamino)-5-methylthieno[2,3-d]pyrimidine-6-carboxamide]
7	Cc1c(C(N)=O)sc2ncnc(Nc3ccc(F)cc3OC3CCC(F)(F)CC3)c12 [Example 33, 4-[2-(4,4-Difluoro-cyclohexyloxy)-4-fluoro-phenylamino]-5-methyl-thieno[2,3-d]pyrimidine-6-carboxylic acid amide]
